In paper PMC4603778, “Encoded Library Synthesis Using Chemical Ligation and the Discovery of sEH Inhibitors from a 334-Million Member Library” (Scientific Reports, 2015):

Target: T1, soluble epoxide hydrolase (sEH) (Homo sapiens, UniProt P34913)
T1 construct: gene EPHX2; His-tagged sEH protein (used in the selection)
T1 sequence (P34913 1-555): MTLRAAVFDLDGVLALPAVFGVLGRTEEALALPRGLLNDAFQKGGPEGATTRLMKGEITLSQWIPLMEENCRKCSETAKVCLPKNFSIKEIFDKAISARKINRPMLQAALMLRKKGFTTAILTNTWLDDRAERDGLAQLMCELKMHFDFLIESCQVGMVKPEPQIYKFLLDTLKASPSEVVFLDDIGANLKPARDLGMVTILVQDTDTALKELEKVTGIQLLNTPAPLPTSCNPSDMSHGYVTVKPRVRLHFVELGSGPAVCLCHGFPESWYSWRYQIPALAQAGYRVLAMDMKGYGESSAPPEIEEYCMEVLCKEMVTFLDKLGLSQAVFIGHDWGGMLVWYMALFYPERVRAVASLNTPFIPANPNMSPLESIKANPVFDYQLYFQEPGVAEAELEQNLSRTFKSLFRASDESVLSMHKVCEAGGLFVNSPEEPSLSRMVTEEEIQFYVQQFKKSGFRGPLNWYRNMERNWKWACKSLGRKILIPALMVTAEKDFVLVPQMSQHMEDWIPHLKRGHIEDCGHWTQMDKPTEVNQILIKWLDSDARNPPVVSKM
Experiment: biochemical sEH inhibition assay of off-DNA compound (methyl in place of DNA linker); building-block combination enriched in affinity selection

- IC50: 2 nM
SMILES: CN(CCn1cccn1)C(=O)c1ccc(-c2cccc(C(=O)NC3CCCCC3)c2)nc1 [compound 12]
